How the values were obtained:
[1] = test system: HL-60 acute mylogenous leukemia; test: Xenograft of pre-treated HL-60 cells (Example 7, Study 2); type: in vivo, female SCID mice; conditions: 20 mM in drinking water
Procedure: To further evaluate the activity of these fucose analogs, further studies were performed in vivo using tumor cells that had been pre-treated by culturing in the presence of a fucose analog, or using untreated tumor cells. Tumor cells were implanted into 10 mice per group as follows. For the LS174T, PC-3, and Caki-1 cell lines, 5×10^5 cells in 25% Matrigel were implanted subcutaneously into female nude mice. For HL-60 and Ramos cell lines, 5×10^6 cells were implanted subcutaneously into female SCID mice. For mice implanted with untreated tumor cells, mice were provided regular drinking water. For mice implanted with tumor cells pre-treated with 2-fluorofucose (SGD-2083), the mice were provided drinking water supplemented with 20 mM 2-fluorofucose (SGD-2083). For mice implanted with tumor cells pre-treated with alkylnyl fucose (SGD-1887), the mice were provided with regular drinking water.
After 3 weeks of receiving 2-fluorofucose-containing drinking water, mice were returned to regular drinking water, except for mice with Caki-1 tumors. The latter mice were returned to regular drinking water for one week. After the week of receiving regular water, mice were randomized to two groups of 5 each to receive drinking water supplemented with 20 mM 2-fluorofucose or regular drinking water. Mice were sacrificed when tumors reached about 1000 mm^3.

[2] = test system: circulating white blood cells and neutrophils; lymph nodes; test: Leukocytosis and lymph node cellularity following oral dosing; type: in vivo, Female Balb/c mice
Procedure: The effects of a fucose analog on leukocytosis and E-selectin binding were eamined in mice. Female Balb/c mice were given oral 2-fluorofucose (SGD-2083) in the drinking water or left untreated. Mice were bled prior to dosing and then weekly for three weeks to assess circulating cell numbers and their ability to bind E-selectin. In one study, 2-fluorofucose was formulated at 1 mM, 10 mM or 100 mM in the drinking water (n=3 per group). At day 14, mice were treated with TiterMAX® Classic adjuvant (Sigma) to stimulate polyclonal, antigen non-specific antibody production by B cells, and remained on the 2-fluorofucose-containing water through day 21. In a second study, mice were given oral 2-fluorofucose formulated at 10 mM and 100 mM in the drinking water for three weeks without any other treatments (n=6). On day 21, a pool of lymph nodes (axillary, brachial, superficial inguinal, and mesenteric) from each of three animals was assessed in addition to blood. Lymph nodes were homogenized into single cell suspensions, and total cell numbers were determined by counting on a hemcytometer, using Trypan Blue for dead cell exclusion. To determine total white cell numbers/μL blood, samples of blood from individual animals were counted on a hemacytometer, using Turk's solution (0.01% gentian violet in 3% acetic acid) to exclude red blood cells (RBCs). RBCs were eliminated from the remainder of the blood by osmotic lysis for flow cytometric analysis. Cells were incubated with anti-Gr-1-FITC antibodies (BD Biosciences) to identify neutrophils, and a recombinant E-selectin-human Fc fusion protein (R&D Systems). Cells were washed and then incubated with a PE-labeled goat anti-human IgG-Fc secondary antibody (Jackson Immunoresearch) to detect bound E-selectin. Samples were collected on a FACSCalibur flow cytometer and analyzed using CellQuest software. The percentage of Gr-1+ cells was determined and absolute number of neutrophils was calculated using the total white cell number from the hemacytometer count. In addition, flow samples were gated for Gr-1+ cells to assess E-selectin binding to neutrophils by histogram analysis. The geometric mean of the E-selectin fluorescent signal was determined from the histogram.

[3] = test system: LS174T, PC-3, HL-60, Ramos, and Caki-1 cell lines; test: Cell surface fucosylation of human-derived cell lines cultured with fucose analog, FACS (Example 7, Study 1); type: cell-based; conditions: 100 μM, two weeks
Procedure: Human-derived cell lines were evaluated for their susceptibility to the fucose analog 2-fluorofucose in vitro. The cells lines were: LS174T colon adenocarcinoma, […], HL-60 acute mylogenous leukemia, Ramos Burkitt lymphoma, and Caki-1 renal cell carcinoma. The cell lines were cultured in the presence of 100 μM 2-fluorofucose (SGD-2083) in growth media, 100 μM alkynylfucose (SGD-1887) in growth media, or control growth media (without a fucose analog) for two weeks. The growth media were MEM Eagle with 10% FBS (LS174T), 50:50 F12 and RPMI with 10% FBS (PC-3), RPMI with 10% FBS (HL-60), IMDM with 10% FBS (Ramos), and McCoy with 10% FBS ([…]). The cells were evaluated for cell surface fucosylation by FACS using antibody cBR96 to detect LewisY, antibody SSEA-1 to detect LewisX, P-selectin ligand to detect P-selectin, and AOL lectin to detect the general level of fucosylation.

[4] = test system: A20 murine lymphoma cells; test: Tumor vaccine model, killed A20 immunization and live A20 challenge; type: in vivo, Female Balb/c mice; conditions: 50 mM in drinking water days -14 through +21
Procedure: Female Balb/c mice were immunized by subcutaneous implantation of 1 million A20 murine lymphoma cells (killed by irradiation) on day −21 and day −7. Another group of mice were not given any immunization. On day 0, all mice were inoculated iv with 1.5 or 5 million live A20 cells. On days −14 through +21, mice were provided with 50 mM 2-fluorofucose (SGD-2083) in their drinking water or given regular drinking water. The 8 treatment groups were as follows: • 1. No immunization, 1.5 million live A20 cells, regular drinking water • 2. No immunization, 5 million live A20 cells, regular drinking water • 3. No immunization, 1.5 million live A20 cells, 50 mM SGD-2083 in drinking water • 4. No immunization, 5 million live A20 cells, 50 mM SGD-2083 in drinking water • 5. Immunized, 1.5 million live A20 cells, regular drinking water • 6. Immunized, 5 million live A20 cells, regular drinking water • 7. Immunized, 1.5 million live A20 cells, 50 mM SGD-2083 in drinking water • 8. Immunized, 5 million live A20 cells, 50 mM SGD-2083 in drinking water Results

`C[C@H](O)[C@@H](O)[C@@H](O)[C@H](F)C=O` [SGD-2083, 2-fluoro-2-deoxy fucose] was tested, and the tumor growth [1] was “No change in tumor growth”, the “effect on circulating white blood cells and neutrophils” value ([2]; 1 mM in drinking water) was “very little effect” and the “effect on circulating white blood cells and neutrophils” value ([2]; 10 mM and 100 mM in drinking water) was “increasing effect”. For the same compound, the “cellularity in the lymph nodes” value ([2]; day 21, second study, 10 mM and 100 mM in drinking water, more severe at 100 mM) was “marked decreased”, the “circulating white blood cells and neutrophils” value ([2]; oral in drinking water, dose-dependent) was “increase” and the “inhibition of protein fucosylation, compared with alkynyl fucose (SGD-1887)” value [3] was “generally a better inhibitor”. The “survival after live A20 challenge” value ([4]; immunized) was “still alive at data collection” and the “survival after live A20 challenge” value ([4]; no immunization, versus regular drinking water) was “survived a few days longer”.

Reference: patent US9504702B2, “Methods of inhibition of protein fucosylation in vivo using fucose analogs” (Seattle Genetics, Inc., priority 2010, dated 2016)
